Where “and” joins values, the source holds several entries; their conditions need not be identical. Equal values may be shown once.
Test system: cells
Test: Cytotoxicity by agarose diffusion test
Type: cell-based
Experimental: Cytotoxicity was assessed by an agarose diffusion test, in which the test material is applied to the surface of agarose gel, wherein the agarose gel is in contact with cells. Cytotoxic test material causes cell lysis. Live cells incorporate MTT and transform it to formazan as described herein above; cytotoxicity potential is given according to the mean area of non-stained cells, i.e., lysed cells, by the following scale:
Two independent tests were performed in duplicate (total of 4 Petri dishes). Cultured cell were trypsinized and counted. 2×10^6 cells in 4 ml of DMEM medium were seeded in each 50 mm diameter Petri dish. The dishes were incubated for 24 h+1 h at 37° C., 5% CO2, before they were covered with 4% agarose gel, prepared with complete DMEM medium. The test compound (tomato derived extract) was applied on top of a 6 mm disc of filter paper that was placed in the center of the agarose gel surface.
After 23 h-25 h of contact at 37° C. and 5% CO2 the filter paper with the test compound and the agarose gel were gently removed. The cells were rinsed carefully with PBS by a pipette. The liquid was then removed, and 2 ml solution of MTT at 0.5 mg/ml, prepared extemporaneously from a source solution of 5 mg/ml, was added to each dish. The dishes were then incubated for 0.5-1.5 h at 37° C. and 5% CO2. After removal of the excess dye, living cells were colored while lysed cells appeared as an uncolored zone. Each dish was placed on a light surface and the largest and the smallest diameters of the lysis area, estimated visually, were measured by a measuring ruler (mm) on a graph paper, and the mean diameter was calculated.
The value of the diameter of cell lysis taken into account for the determination of cytotoxicity corresponded to the arithmetical mean of the mean diameter defined for the 2 dishes of each test (MD). Pure complete DMEM served as a negative control (no lysis should occur). 3% SDS served as a positive control (cells are lysed due to the presence of SDS).

[1] = dishes 1-4, 23 h-25 h of contact

SMILES: CCCCCCCCCCCCOS(=O)(=O)[O-].[Na+] [3% SDS, SDS]
- MD (mean of the mean diameter for the 2 dishes of each test) (dishes 1 + 2 and 3 + 4): 2.6 cm
- Mean (diameter of lysis) (dishes 1-4): 2.6 cm and 2.5 cm
- Largest diameter (of the lysis area) [1]: 2.5 cm and 2.6 cm
- Smallest diameter (of the lysis area) [1]: 2.4 cm and 2.5 cm

Reference: US20090264291A1, “COMPOSITIONS COMPRISING ANTI-PROLIFERATIVE AGENTS AND USE THEREOF” (priority 1998, published 2009)
